{"source": "patent US20230183640A1", "about": "“METABOLIC INHIBITORS WITH EFFICACY FOR INHIBITING SULFIDE PRODUCTION IN HARSH ENVIRONMENTS” (MC (US) 3 LLC, priority 2020, published 2023)", "key": {"[1]": {"test_system": "Desulfovibrio alaskensis 14563", "assay": "H2S and Log (Growth) efficacy, 10 mL Serum Vial Method", "format": "cell-based", "procedure": "A lyophilized Desulfovibrio alaskensis 14563, Desulfovibrio longus 51456, and Desulfovibrio gabonensis 700201 pure cultures received from ATCC were resuspended individually in 500 ul of MB 1250. Aseptically, the content was transferred to a 5-mL tube of MB1250 medium. The cultures were incubated in an anaerobic chamber at 30° C. for 72 hrs. Subsequently, an individual stock culture with a final concentration of 25% glycerol were prepared by adding equal volumes of culture and 50% glycerol. 1 ml of the cultures were then transferred to 2-ml cryogenic vials and stored at −80° C. The purity of the stock cultures was evaluated through PCR, by amplifying the 16S rDNA region, and thus, it was verified that the original ATCC sample was a pure culture. 48-hour cultures of ATCC Desulfovibrio alaskensis 14563, Desulfovibrio longus 51456, and Desulfovibrio gabonensis 700201 were prepared in an anaerobic chamber. Each culture was prepared as a 1:10 culture by taking 1 milliliter (mL) of a pure culture and inoculating 9 milliliters (mL) of fresh MB1250 media. The Desulfovibrio alaskensis 14563 and Desulfovibrio gabonensis 700201 were all grown at 30° C. and the Desulfovibrio longus 51456 culture was grown at 35° C.\nAfter the 48-hour incubation, 600 microliters (μL) were taken from the Desulfovibrio alaskensis 14563 culture and optical density (OD) was measured using a Thermofisher Spectronic 200 Spectrophotometer at 600 nm. Each culture was diluted to 0.05 OD600 in fresh MB1250 media and 5 mL of culture solution is transferred to 10 mL Vials and compound Cis stock solution is added. In Table 4 and 5, the concentrations of the compound C1 used for the experiments are listed. Each experiment was done with at least three replicates for different treatments and non-treatment controls. At 2 days, 3 days and 5 days, enumeration plates were made, and sulfide samples were taken in triplicate.\nThe enumerations were done in triplicate having 20 μL taken from each vial and placing them into 3 wells of first row in a 96-well plate. Then, the same serial dilution process was done with the test plate procedure as described in 96-well plate method. These enumerations were read after 7 days of growth at 30° C. in the anaerobic chamber. For the sulfide assay, 9 μL were taken from each vial and placed in 3 wells with 2% zinc acetate. The assay procedure was the same as described in 96-well plate method."}, "[2]": {"test_system": "various microorganism strains", "assay": "Comparative testing of C1 in aerobic and anaerobic conditions", "format": "cell-based", "conditions": "Examples 2 and 3", "text": "Therefore, to further analyze the efficacy of compound C1, comparative testing was done in both aerobic and anaerobic conditions using additional bacteria cultures. For aerobic conditions testing, the following strains were used: Escherichia coli, Pseudomonas aeruginosa, Enterobacter aerogenes, and Klebsiella pneumoniae. For anaerobic testing, the following strains were used: Klebsiella pneumoniae, Enterobacter aerogenes, Escherichia coli, and Enterococcus faecalis."}}, "data": [{"smiles": "O=C(CN1C(=O)c2cccc3cccc(c23)C1=O)NO", "note": "[C1]", "values": [{"measurement": "H2S", "setting": "[1]; 2 days, 0.09 PPM", "result": 233.1, "unit": "PPM"}, {"measurement": "Log (Growth)", "setting": "[1]; 2 days, 0.09 PPM", "result": 7.9}, {"measurement": "H2S", "setting": "[1]; 2 days, 0.19 PPM", "result": 202.1, "unit": "PPM"}, {"measurement": "Log (Growth)", "setting": "[1]; 2 days, 0.19 PPM", "result": 8.0}, {"measurement": "H2S", "setting": "[1]; 2 days, 0.38 PPM", "result": 170.4, "unit": "PPM"}, {"measurement": "Log (Growth)", "setting": "[1]; 2 days, 0.38 PPM", "result": 7.8}, {"measurement": "H2S", "setting": "[1]; 2 days, 0.75 PPM", "result": 121.6, "unit": "PPM"}, {"measurement": "Log (Growth)", "setting": "[1]; 2 days, 0.75 PPM", "result": 7.2}, {"measurement": "H2S", "setting": "[1]; 3 days, 0.75 PPM", "result": 190.2, "unit": "PPM"}, {"measurement": "Log (Growth)", "setting": "[1]; 3 days, 0.75 PPM", "result": 7.4}, {"measurement": "H2S", "setting": "[1]; 3 days, 1.5 PPM", "result": 50.1, "unit": "PPM"}, {"measurement": "Log (Growth)", "setting": "[1]; 3 days, 1.5 PPM", "result": 4.8}, {"measurement": "H2S", "setting": "[1]; 3 days, 3.0 PPM", "result": 23.1, "unit": "PPM"}, {"measurement": "Log (Growth)", "setting": "[1]; 3 days, 3.0 PPM", "result": 4.0}, {"measurement": "H2S", "setting": "[1]; 3 days, 6.0 PPM", "result": 19.2, "unit": "PPM"}, {"measurement": "Log (Growth)", "setting": "[1]; 3 days, 6.0 PPM", "result": 0.0}, {"measurement": "H2S", "setting": "[1]; 5 days, 0.75 PPM", "result": 253.3, "unit": "PPM"}, {"measurement": "Log (Growth)", "setting": "[1]; 5 days, 0.75 PPM", "result": 7.9}, {"measurement": "H2S", "setting": "[1]; 5 days, 1.5 PPM", "result": 69.9, "unit": "PPM"}, {"measurement": "Log (Growth)", "setting": "[1]; 5 days, 1.5 PPM", "result": 6.2}, {"measurement": "H2S", "setting": "[1]; 5 days, 3.0 PPM", "result": 19.5, "unit": "PPM"}, {"measurement": "Log (Growth)", "setting": "[1]; 5 days, 3.0 PPM", "result": 1.0}, {"measurement": "H2S", "setting": "[1]; 5 days, 6.0 PPM", "result": 15, "unit": "PPM"}, {"measurement": "Log (Growth)", "setting": "[1]; 5 days, 6.0 PPM", "result": 0.0}, {"measurement": "inhibition under anaerobic as opposed to aerobic conditions", "setting": "[2]", "result": "preferentially inhibited hydrogen sulfide production under anaerobic conditions"}, {"measurement": "killing of the various microorganism strains", "setting": "[2]", "result": "completely killing"}]}]}
